# Measured values: ChEMBL document CHEMBL1123242, “Derivatives of 1-(1,3-benzodioxol-5-yl)-2-butanamine: representatives of a novel therapeutic class” (1986)
# How the values were obtained:
# Type in all cases: functional
# Rattus norvegicus [1] = assay: Compound was tested for hallucinogenic activity in rats at 0.69 dose(mg/kg); Number of rats selecting the LSD lever/ number of rats responding (2/9)
# Rattus norvegicus [2] = assay: Compound was tested for hallucinogenic activity in rats at 2.07dose (mg/kg); Number of rats selecting the LSD lever/ number of rats responding (3/8)
# Rattus norvegicus [3] = assay: Compound was tested for hallucinogenic activity in rats at 2.41 dose (mg/kg); Number of rats selecting the LSD lever/ number of rats responding (3/8)
# Rattus norvegicus [4] = assay: Compound was tested for hallucinogenic activity in rats at 2.76 dose (mg/kg); Number of rats selecting the LSD lever/ number of rats responding (3/9)
# Rattus norvegicus [5] = assay: Compound was tested for hallucinogenic activity in rats at 3.44 dose (mg/kg); Number of rats selecting the LSD lever/ number of rats responding (4/8)
# Rattus norvegicus [6] = assay: Compound was tested for hallucinogenic activity in rats at 4.14 dose (mg/kg); 2/4, highest dose tested
# Rattus norvegicus [7] = assay: Compound was tested for hallucinogenic activity in rats at 1.72 dose(mg/kg); Number of rats selecting the LSD lever/ number of rats responding (4/8)
# Rattus norvegicus [8] = assay: Compound was tested for hallucinogenic activity in rats at dose 1.38(mg/kg); Number of rats selecting the LSD lever/ number of rats responding (2/8)
# Rattus norvegicus [9] = assay: Compound was tested for hallucinogenic activity in rats at the dose 0.17(mg/kg); Number of rats selecting the LSD lever/ number of rats responding (1/8)
# Rattus norvegicus [10] = assay: Compound was tested for hallucinogenic activity in rats at the dose 0.34(mg/kg); Number of rats selecting the LSD lever/ number of rats responding (3/8
# Rattus norvegicus [11] = assay: Compound was tested for hallucinogenic activity in rats at 15 dose(mg/kg); 0/0, highest dose tested
# Rattus norvegicus [12] = assay: Compound was tested for hallucinogenic activity in rats at 1.95 dose(mg/kg); Number of rats selecting the LSD lever/ number of rats responding (1/7)
# Rattus norvegicus [13] = assay: Compound was tested for hallucinogenic activity in rats at 2.07 dose(mg/kg); 0/0, highest dose tested
# Rattus norvegicus [14] = assay: Compound was tested for hallucinogenic activity in rats at the dose 0.37(mg/kg); Number of rats selecting the LSD lever/ number of rats responding (0/8)
# Rattus norvegicus [15] = assay: Compound was tested for hallucinogenic activity in rats at the dose 0.73(mg/kg); Number of rats selecting the LSD lever/ number of rats responding (0/8)
# Rattus norvegicus [16] = assay: Compound was tested for hallucinogenic activity in rats at 1.38 dose(mg/kg); Number of rats selecting the LSD lever/ number of rats responding (3/8)
# Rattus norvegicus [17] = assay: Compound was tested for hallucinogenic activity in rats at 1.84 dose(mg/kg); 2/4, highest dose tested
# Rattus norvegicus [18] = assay: Compound was tested for hallucinogenic activity in rats at the dose 0.34 (mg/kg); Number of rats selecting the LSD lever/ number of rats responding (0/8)
# Rattus norvegicus [19] = assay: Compound was tested for hallucinogenic activity in rats at the dose 0.69(mg/kg); Number of rats selecting the LSD lever/ number of rats responding (0/8)
# Rattus norvegicus [20] = assay: Compound was tested for hallucinogenic activity in rats at 2.19 dose(mg/kg); 0/1, highest dose tested
# Rattus norvegicus [21] = assay: Compound was tested for hallucinogenic activity in rats at 1.38 dose(mg/kg); Number of rats selecting the LSD lever/ number of rats responding (2/8)
# Rattus norvegicus [22] = assay: Compound was tested for hallucinogenic activity in rats at 1.84 dose(mg/kg); Number of rats selecting the LSD lever/ number of rats responding (3/8)
# Rattus norvegicus [23] = assay: Compound was tested for hallucinogenic activity in rats at the dose 0.34 (mg/kg); Number of rats selecting the LSD lever/ number of rats responding (2/8)
# Rattus norvegicus [24] = assay: Compound was tested for hallucinogenic activity in rats at 0.32(mg/kg)
# Rattus norvegicus [25] = assay: Compound was tested for hallucinogenic activity in rats at the dose 0 (mg/kg)
# Rattus norvegicus [26] = assay: Compound was tested for hallucinogenic activity in rats at 0.32dose (mg/kg); Number of rats selecting the LSD lever/ number of rats responding (0/8)
# Rattus norvegicus [27] = assay: Compound was tested for hallucinogenic activity in rats at 0.63 dose(mg/kg); Number of rats selecting the LSD lever/ number of rats responding (2/8)
# Rattus norvegicus [28] = assay: Compound was tested for hallucinogenic activity in rats at 1.72 dose(mg/kg); Number of rats selecting the LSD lever/ number of rats responding (7/8)
# Rattus norvegicus [29] = assay: Compound was tested for hallucinogenic activity in rats at 1.29 dose(mg/kg); Number of rats selecting the LSD lever/ number of rats responding (5/8)
# Rattus norvegicus [30] = assay: Compound was tested for hallucinogenic activity in rats at the dose 0.0025 (mg/kg)
# Rattus norvegicus [31] = assay: Compound was tested for hallucinogenic activity in rats at the dose of 0.0025 (mg/kg); Number of rats selecting the LSDlever/ number of rats responding (0/8)
# Rattus norvegicus [32] = assay: Compound was tested for hallucinogenic activity in rats at the dose of 0.005(mg/kg); Number of rats selecting the LSDlever/ number of rats responding (4/8)
# Rattus norvegicus [33] = assay: Compound was tested for hallucinogenic activity in rats at the dose of 0.02(mg/kg); Number of rats selecting the LSDlever/ number of rats responding (5/8)
# Rattus norvegicus [34] = assay: Compound was tested for hallucinogenic activity in rats at the dose of 0.08(mg/kg); Number of rats selecting the LSDlever/ number of rats responding (8/8)
# Rattus norvegicus [35] = assay: Compound was tested for hallucinogenic activity in rats at the dose of 0.01(mg/kg); Number of rats selecting the LSDlever/ number of rats responding (4/8)
# Rattus norvegicus [36] = assay: Compound was tested for hallucinogenic activity in rats at the dose of 0.04(mg/kg); Number of rats selecting the LSDlever/ number of rats responding (6/8)
smiles,measurement,setting,value
CN[C@H](C)Cc1ccc2c(c1)OCO2,Result,Rattus norvegicus [1],2
same,Result,Rattus norvegicus [2],3
same,Result,Rattus norvegicus [3],3
same,Result,Rattus norvegicus [4],3
same,Result,Rattus norvegicus [5],4
same,Result,Rattus norvegicus [6],2
same,Result,Rattus norvegicus [7],4
same,Result,Rattus norvegicus [8],2
same,Result,Rattus norvegicus [9],1
same,Result,Rattus norvegicus [10],3
CC[C@@H](Cc1ccc2c(c1)OCO2)NC,Result,Rattus norvegicus [11],0
CCC(Cc1ccc2c(c1)OCO2)NC (racemic),Result,Rattus norvegicus [12],1
same,Result,Rattus norvegicus [13],0
same,Result,Rattus norvegicus [14],0
same,Result,Rattus norvegicus [15],0
CCC(N)Cc1ccc2c(c1)OCO2 (racemic),Result,Rattus norvegicus [16],3
same,Result,Rattus norvegicus [17],2
same,Result,Rattus norvegicus [18],0
same,Result,Rattus norvegicus [19],0
CNC(C)Cc1ccc2c(c1)OCO2 (racemic) [MIDOMAFETAMINE],Result,Rattus norvegicus [20],0
same,Result,Rattus norvegicus [21],2
same,Result,Rattus norvegicus [22],3
same,Result,Rattus norvegicus [23],2
same,Result,Rattus norvegicus [19],0
CC(N)Cc1ccc2c(c1)OCO2 (racemic) [TENAMFETAMINE],ED50,Rattus norvegicus [24],0.97 mg/kg
same,ED50,Rattus norvegicus [25],4.52 µmol/kg
same,Result,Rattus norvegicus [26],0
same,Result,Rattus norvegicus [27],2
same,Result,Rattus norvegicus [28],7
same,Result,Rattus norvegicus [29],5
CCN(CC)C(=O)[C@@H]1C=C2c3cccc4[nH]cc(c34)C[C@H]2N(C)C1 [LYSERGIDE],ED50,Rattus norvegicus [30],0.025 µmol/kg
same,Result,Rattus norvegicus [31],0
same,Result,Rattus norvegicus [32],4
same,Result,Rattus norvegicus [33],5
same,Result,Rattus norvegicus [34],8
same,Result,Rattus norvegicus [35],4
same,Result,Rattus norvegicus [36],6
